Results: US10828300B2, “Substituted 2,4-diaminopyrimidines as kinase inhibitors” (Celgene CAR LLC, priority 2008, dated 2020)
“Also recorded” adds a separate entry of the source.

Experiments:
TEC kinase = TEC kinase (Homo sapiens (Human), UniProt P42680); assay: Mass spectrometry for TEC kinase (tryptic digest); format: binding, Homo sapien; settings: 3 hrs at 10× excess, peptide GCLLNFLR
Protocol: Mass Spectrometry for TEC Kinase (Compound I-2)
(§1) TEC kinase (45 pmols; Invitrogen) was incubated with (I-2) (450 pmols) for 3 hrs at 10× excess prior to tryptic digestion. Iodoacetamide was used as the alkylating agent after compound incubation. […] For tryptic digests a 5 ul aliquot (7.5 pmols) was diluted with 15 ul of 0.1% TFA prior to micro C18 Zip Tipping directly onto the MALDI target using alpha cyano-4-hydroxy cinnamic acid as the matrix (5 mg/ml in 0.1% TFA:Acetonitrile 50:50).
(§2) For tryptic digests the instrument was set in Reflectron mode with a pulsed extraction setting of 2200. Calibration was done using the Laser Biolabs Pep Mix standard ([…], 1296.69, 1672.92, 2093.09, 2465.20). For CID/PSD analysis the peptide was selected using cursors to set ion gate timing and fragmentation occurred at a laser power about 20% higher and He was used as the collision gas for CID. Calibration for fragments was done using the P14R fragmentation calibration for the Curved field Reflectron.
Mass Spectrometry for TEC Kinase (Compound I-4)
as §1, with “(I-4)” for “(I-2)”
as §2, with “1800.” for “2200.”
Mass Spectrometry for TEC Kinase (Compound I-7) […]

BTK [1] = biological target: T1, BTK (Homo sapiens (Human), UniProt Q06187); assay: Washout experiment with Ramos cells (PLCγ2 phosphorylation); format: cell-based; settings: Ramos washout assay, 100 nM compound for 1 hour
Protocol: Washout Experiment with Ramos Cells
Ramos cells were serum starved for one hour in RPMI media +1% glutamine at 37° C. After starvation, Ramos cells were treated with 100 nM compound diluted in serum free RPMI media for 1 hour. After compound treatment, the media was removed and cells were washed with compound-free media. Subsequently, Ramos cells were washed every 2 hours and resuspended in fresh compound-free media. Cells were collected at specified timepoints, treated with 1 ug anti-human IgM (Southern Biotech cat #2022-01) for 10 minutes on ice to induce BCR signaling and then washed in PBS. Ramos cells were then lysed in Cell Extraction Buffer (Invitrogen FNN0011) supplemented with Roche complete protease inhibitor tablets (Roche 11697498001) and phosphatase inhibitors (Roche 04 906 837 001) and 18 ug total protein lysate was loaded in each lane. Inhibition of BTK kinase activity was assayed by measuring its substrate (PLCγ2) phosphorylation by western blot with phospho-specific antibodies from Cell Signaling Technologies cat#3871. The results of this experiment with compounds I-2, I-4 and I-7 are depicted in FIGS. 1, 2 and 3.

Erbb4 kinase domain = Erbb4 kinase domain (Homo sapiens (Human), UniProt Q15303); assay: Mass spectrometry for ERBB4 (intact protein); format: binding; settings: 60 minutes at 10-fold excess of compound
Protocol: Mass Spectrometry for ERBB4
Erbb4 kinase domain (Upstate) was incubated with compound for 60 minutes at 10-fold excess of compound I-4 and I-11 to protein. 1 μl aliquots of the samples (total volume of 4.24 ul) were diluted with 10 μl of 0.1% TFA prior to micro C4 ZipTipping directly onto the MALDI target using Sinapinic acid as the desorption matrix (10 mg/ml in 0.1% TFA:Acetonitrile 50:50). For intact protein mass measurement the instrument was set in Linear mode using a pulsed extraction setting of 16,952 for the myoglobin standard used to calibrate the instrument (Shimadzu Axima TOF^2).
Intact ErbB4 protein occurs at MH+ of 35850 with corresponding sinapinic (matrix) adducts occurring about 200 Da higher. A stochiometric incorporation of the test compound (I-4 and I-11) (Mw of 410 Da) produced a new mass peak which is approximately 410 Da higher (MH+ of 36260).

BTK [2] = biological target: T1, BTK; assay: Mass spectrometry for BTK (intact protein, covalent modification); format: binding
Protocol: Mass Spectrometry for BTK
Intact BTK was incubated for 1 hr at a 10× fold excess of I-7 to protein. Aliquots (2 μl) of the samples were diluted with 10 μl of 0.1% TFA prior to micro C4 ZipTipping directly onto the MALDI target using Sinapinic acid as the desorption matrix (10 mg/ml in 0.1% TFA:Acetonitrile 20:80).

BTK [3] = biological target: T1, BTK; assay: Washout experiment with I-7 and probe compound I-215 in Ramos cells; format: cell-based; settings: 0.1 μM for 1 hour, then washout, probe I-215
Protocol: Washout Experiment with I-7 and Probe Compound I-215
Ramos cells were incubated with 0.1 μM I-7 or a reversible BTK inhibitor control compound in serum free media for 1 hour at 37° C. The cells were then washed in compound-free media and lysed 0, 4, 6, or 8 hours after compound removal. Cell lysates were incubated with 1 μM I-215 for 1 hour at room temperature, then overnight at 4° C. with streptavidin-coupled agarose beads. Protein was boiled off the beads and BTK association was assessed by western blot. […] In contrast, with the reversible inhibitor control, 45% of BTK protein is unbound and available to the probe at 0 hours and by 4 hours 100% of BTK protein is unbound and available to bind the probe. All samples were normalized to the DMSO-treated cells harvested at 0 hours.

JAK3 kinase = JAK3 kinase (Homo sapiens (Human), UniProt P52333); assay: Mass spectrometry for Janus-3 kinase (JAK3), tryptic digest; format: binding, homosapien; settings: 3 hrs at 10× excess, peptide LVMEYLPSGCLR
Protocol: Mass Spectrometry for Janus-3 Kinase (JAK3)
JAK3 kinase (33 pmols; Invitrogen) was incubated with (I-7) (327 pmols) for 3 hrs at 10× excess prior to tryptic digestion. Iodoacetamide was used as the alkylating agent after compound incubation. For tryptic digests a 5 ul aliquot (5.5 pmols) was diluted with 15 ul of 0.1% TFA prior to micro C18 Zip Tipping directly onto the MALDI target using alpha cyano-4-hydroxy cinnamic acid as the matrix (5 mg/ml in 0.1% TFA:Acetonitrile 50:50).
as §2

BTK [4] = biological target: T1, BTK; assay: BTK occupancy from in vitro samples by ELISA (Ramos cells, probe I-215); format: cell-based; settings: probe I-215 ELISA
Excerpt: Measuring BTK occupancy from in vitro samples by ELISA
In order to determine the amount of free BTK in cell or tissue lysates, an ELISA protocol was employed that utilizes a biotinylated probe compound that binds only to free, unoccupied BTK. The conjugated biotin is captured on a streptavidin-coated ELISA plate and detected with a mouse anti-BTK antibody (Becton Dickinson, Franklin Lakes, N.J., USA) and a secondary goat anti-mouse HRP antibody (Zymed, South San Francisco, Calif., USA).
All samples were prepared with equal concentrations of Biorad lysis buffer (Hercules, Calif., USA), 0.5% bovine serum albumin in PBS with 0.05% Tween-20 to give a final concentration of 1 μM I-215. Samples were incubated in a mixing plate for 1 hr at room temperature while shaking to allow probe compound I-215 to bind to free BTK. After incubation with I-215, samples were added to a washed, streptavidin-coated ELISA plate (Pierce, Rockford, Ill., USA) and incubated for 1 hr at room temperature while shaking. The plate was then washed with PBS containing 0.05% Tween-20 using an automatic plate washer. Anti-BTK antibody was prepared at 1:1000 dilution in 0.5% BSA in PBS (0.05% Tween-20) and added to the ELISA plate. The plate was incubated for 1 hr at room temperature while shaking. The plate was washed as described above and the secondary HRP antibody was prepared at 1:5000 dilution in 0.5% BSA in PBS (0.05% Tween-20). The plate was incubated and washed as described above. TMB was added to the plate, and OD650 was monitored until reaching 1 OD unit. The reaction was then stopped with addition of H2SO4. The plate was analyzed using Gen 5 software, and a 4 Parameter Logistic curve was employed to quantitate samples. Recombinant BTK (Invitrogen, Carlsbad, Calif., USA) was used for the standard curve.
A concentration designated as “A” is greater than 1 nM; a concentration designated as “B” is greater than 10 nM; and a concentration designated as “C” is greater than 50 nM.

ITK = ITK (Homo sapiens (Human), UniProt Q08881); assay: Omnia assay for potency assessment against active forms of ITK kinase; format: biochemical; settings: [ITK]=10 nM, [ATP]=25 μM, [Y6-Sox]=10 μM; read-out: ITK Inhibition
BTK [5] = biological target: T1, BTK; assay: BTK Ramos cellular assay (phosphorylation of BTK substrate PLCγ2); format: cell-based; settings: Ramos cells, anti-IgM stimulated, read-out: BTK Inhibition (BTK Ramos Cellular Inhibition Data)
Protocol: Ramos cells were grown in suspension in T225 flasks, spun down, resuspended in 50 ml serum-free media and incubated for 1 hour. […] Ramos cells were incubated with compound for 1 hour, washed again and resuspended in 100 ul serum-free media. Cells were then stimulated with 1 μg of goat F(ab′)2 Anti-Human IgM and incubated on ice for 10 minutes to activate B cell receptor signaling pathways. After 10 minutes, the cells were washed once with PBS and then lysed on ice with Invitrogen Cell Extraction buffer. 16 μg total protein from lysates were loaded on gel and blots were probed for phosphorylation of the BTK substrate PLCγ2.

BTK [6] = biological target: T1, BTK; assay: Omnia assay protocol for potency assessment against BTK; format: biochemical
Excerpt: Omnia Assay Protocol for Potency Assessment Against BTK

EGFR-WT = EGFR-WT (Homo sapiens (Human), UniProt P00533); assay: Omnia assay for potency assessment against EGFR (WT); format: biochemical; settings: read-out: EGFR Wild Type Inhibition
EGFR-WT, sequence (P00533 25-1210): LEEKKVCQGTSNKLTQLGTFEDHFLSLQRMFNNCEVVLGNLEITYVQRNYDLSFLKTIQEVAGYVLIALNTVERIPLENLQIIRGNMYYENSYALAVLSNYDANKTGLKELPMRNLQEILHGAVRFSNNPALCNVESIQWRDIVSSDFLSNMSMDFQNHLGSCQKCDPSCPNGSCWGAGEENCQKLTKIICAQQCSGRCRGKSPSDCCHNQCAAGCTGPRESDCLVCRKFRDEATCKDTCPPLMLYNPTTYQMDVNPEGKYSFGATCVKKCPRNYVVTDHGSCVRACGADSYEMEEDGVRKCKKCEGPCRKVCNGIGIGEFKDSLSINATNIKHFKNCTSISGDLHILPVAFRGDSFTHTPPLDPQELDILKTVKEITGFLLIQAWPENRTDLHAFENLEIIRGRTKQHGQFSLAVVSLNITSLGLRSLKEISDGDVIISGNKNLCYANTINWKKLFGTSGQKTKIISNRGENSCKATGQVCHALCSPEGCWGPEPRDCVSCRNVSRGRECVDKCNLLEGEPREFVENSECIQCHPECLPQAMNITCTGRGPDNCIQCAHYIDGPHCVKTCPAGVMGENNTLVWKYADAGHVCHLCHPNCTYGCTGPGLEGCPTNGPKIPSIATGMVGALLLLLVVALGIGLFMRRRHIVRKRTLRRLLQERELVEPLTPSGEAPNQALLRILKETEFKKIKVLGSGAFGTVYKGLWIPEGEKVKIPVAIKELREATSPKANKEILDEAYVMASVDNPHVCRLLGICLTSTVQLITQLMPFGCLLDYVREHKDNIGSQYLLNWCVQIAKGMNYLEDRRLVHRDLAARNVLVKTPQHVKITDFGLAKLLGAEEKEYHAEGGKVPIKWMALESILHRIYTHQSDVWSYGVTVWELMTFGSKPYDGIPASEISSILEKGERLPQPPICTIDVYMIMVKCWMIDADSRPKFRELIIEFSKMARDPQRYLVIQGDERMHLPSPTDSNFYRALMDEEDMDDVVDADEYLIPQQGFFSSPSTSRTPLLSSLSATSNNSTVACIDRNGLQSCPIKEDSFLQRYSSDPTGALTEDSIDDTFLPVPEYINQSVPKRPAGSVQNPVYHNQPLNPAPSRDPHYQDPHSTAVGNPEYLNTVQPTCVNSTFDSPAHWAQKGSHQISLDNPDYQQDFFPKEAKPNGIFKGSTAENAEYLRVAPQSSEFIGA

TEC kinase, sequence (P42680 whole entry): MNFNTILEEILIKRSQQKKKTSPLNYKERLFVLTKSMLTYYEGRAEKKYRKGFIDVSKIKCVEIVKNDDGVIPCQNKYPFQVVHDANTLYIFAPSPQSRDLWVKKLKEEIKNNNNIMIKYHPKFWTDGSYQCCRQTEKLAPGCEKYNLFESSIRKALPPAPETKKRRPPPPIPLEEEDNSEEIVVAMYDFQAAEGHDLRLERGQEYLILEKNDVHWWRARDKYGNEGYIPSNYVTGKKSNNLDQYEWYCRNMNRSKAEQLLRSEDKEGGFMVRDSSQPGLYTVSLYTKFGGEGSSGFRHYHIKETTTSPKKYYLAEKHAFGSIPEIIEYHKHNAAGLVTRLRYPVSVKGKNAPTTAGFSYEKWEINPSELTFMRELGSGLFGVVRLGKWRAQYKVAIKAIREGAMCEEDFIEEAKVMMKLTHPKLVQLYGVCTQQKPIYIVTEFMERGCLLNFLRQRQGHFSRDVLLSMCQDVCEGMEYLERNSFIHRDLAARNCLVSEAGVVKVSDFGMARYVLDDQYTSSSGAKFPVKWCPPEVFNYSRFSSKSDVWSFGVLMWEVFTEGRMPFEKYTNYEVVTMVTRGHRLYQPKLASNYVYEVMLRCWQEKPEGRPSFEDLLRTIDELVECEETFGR
T1 sequence (Q06187 whole entry): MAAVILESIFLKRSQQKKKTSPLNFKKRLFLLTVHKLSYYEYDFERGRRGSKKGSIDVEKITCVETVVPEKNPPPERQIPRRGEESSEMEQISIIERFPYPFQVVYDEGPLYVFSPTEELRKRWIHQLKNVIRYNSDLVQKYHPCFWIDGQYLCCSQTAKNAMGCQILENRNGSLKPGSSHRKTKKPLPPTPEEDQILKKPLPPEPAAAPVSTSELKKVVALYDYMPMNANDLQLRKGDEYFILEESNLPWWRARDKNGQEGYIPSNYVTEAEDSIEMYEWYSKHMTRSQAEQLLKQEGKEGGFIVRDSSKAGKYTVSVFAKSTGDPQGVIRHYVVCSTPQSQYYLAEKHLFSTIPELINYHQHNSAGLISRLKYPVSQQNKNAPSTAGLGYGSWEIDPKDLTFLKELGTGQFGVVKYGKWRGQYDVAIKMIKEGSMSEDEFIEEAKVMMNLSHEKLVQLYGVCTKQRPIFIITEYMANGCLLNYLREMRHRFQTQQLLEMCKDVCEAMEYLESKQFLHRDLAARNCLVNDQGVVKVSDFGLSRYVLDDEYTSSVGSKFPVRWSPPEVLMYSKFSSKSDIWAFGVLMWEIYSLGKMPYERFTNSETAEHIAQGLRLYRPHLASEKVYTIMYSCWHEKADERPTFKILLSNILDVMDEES
JAK3 kinase, sequence (P52333 whole entry): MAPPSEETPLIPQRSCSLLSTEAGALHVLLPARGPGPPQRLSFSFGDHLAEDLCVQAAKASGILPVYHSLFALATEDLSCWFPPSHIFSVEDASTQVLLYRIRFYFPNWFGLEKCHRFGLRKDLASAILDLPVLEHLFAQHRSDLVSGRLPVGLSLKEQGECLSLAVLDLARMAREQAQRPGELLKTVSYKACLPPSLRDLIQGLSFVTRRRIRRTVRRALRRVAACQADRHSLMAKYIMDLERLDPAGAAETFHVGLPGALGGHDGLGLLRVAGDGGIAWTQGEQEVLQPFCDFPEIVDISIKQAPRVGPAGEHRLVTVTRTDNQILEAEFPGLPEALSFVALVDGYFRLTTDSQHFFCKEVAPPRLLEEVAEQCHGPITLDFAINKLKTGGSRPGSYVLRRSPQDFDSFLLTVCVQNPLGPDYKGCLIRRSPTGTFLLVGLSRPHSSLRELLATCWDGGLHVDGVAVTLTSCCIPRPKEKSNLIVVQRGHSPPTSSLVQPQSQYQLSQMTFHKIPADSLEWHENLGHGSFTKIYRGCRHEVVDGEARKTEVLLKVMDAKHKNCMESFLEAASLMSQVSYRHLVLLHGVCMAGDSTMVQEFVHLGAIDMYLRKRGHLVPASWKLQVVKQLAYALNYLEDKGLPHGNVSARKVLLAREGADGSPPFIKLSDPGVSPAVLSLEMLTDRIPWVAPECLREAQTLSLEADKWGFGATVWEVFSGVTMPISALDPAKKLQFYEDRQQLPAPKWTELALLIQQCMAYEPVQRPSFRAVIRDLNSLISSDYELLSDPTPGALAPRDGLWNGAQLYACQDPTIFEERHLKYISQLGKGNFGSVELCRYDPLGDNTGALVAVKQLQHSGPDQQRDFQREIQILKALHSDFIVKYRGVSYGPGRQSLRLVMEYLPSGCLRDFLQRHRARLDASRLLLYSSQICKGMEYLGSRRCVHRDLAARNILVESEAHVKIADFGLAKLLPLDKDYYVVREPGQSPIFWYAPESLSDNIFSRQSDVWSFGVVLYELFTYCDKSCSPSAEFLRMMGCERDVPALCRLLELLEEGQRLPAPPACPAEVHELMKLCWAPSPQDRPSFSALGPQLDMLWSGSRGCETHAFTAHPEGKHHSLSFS
Erbb4 kinase domain, sequence (Q15303 718-985): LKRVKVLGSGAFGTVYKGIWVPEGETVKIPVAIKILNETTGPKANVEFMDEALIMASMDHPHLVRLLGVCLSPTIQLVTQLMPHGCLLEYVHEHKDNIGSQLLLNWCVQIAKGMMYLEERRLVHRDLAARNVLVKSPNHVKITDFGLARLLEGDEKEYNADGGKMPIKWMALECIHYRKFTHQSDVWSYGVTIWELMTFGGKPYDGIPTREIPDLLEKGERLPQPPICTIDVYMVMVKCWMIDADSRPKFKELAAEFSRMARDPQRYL
ITK, sequence (Q08881 whole entry): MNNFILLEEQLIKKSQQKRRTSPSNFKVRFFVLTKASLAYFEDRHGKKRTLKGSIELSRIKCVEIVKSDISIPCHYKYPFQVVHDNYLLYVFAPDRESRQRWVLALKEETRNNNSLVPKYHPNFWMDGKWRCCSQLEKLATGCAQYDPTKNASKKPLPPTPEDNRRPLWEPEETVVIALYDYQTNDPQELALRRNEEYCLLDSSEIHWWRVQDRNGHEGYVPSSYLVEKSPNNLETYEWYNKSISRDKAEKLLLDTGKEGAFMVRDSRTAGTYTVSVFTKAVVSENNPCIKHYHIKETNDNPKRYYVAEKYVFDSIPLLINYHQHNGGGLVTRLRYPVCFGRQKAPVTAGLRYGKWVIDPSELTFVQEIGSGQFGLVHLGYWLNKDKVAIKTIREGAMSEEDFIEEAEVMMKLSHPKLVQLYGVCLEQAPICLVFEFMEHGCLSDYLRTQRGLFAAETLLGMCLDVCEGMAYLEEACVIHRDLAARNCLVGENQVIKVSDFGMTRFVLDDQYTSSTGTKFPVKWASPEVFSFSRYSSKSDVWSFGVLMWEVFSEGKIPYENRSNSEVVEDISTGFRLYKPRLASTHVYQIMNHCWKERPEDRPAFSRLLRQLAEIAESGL

Structure (SMILES)	covalent modification of TEC kinase by mass spectrometry (TEC kinase)	BTK Inhibition Type (BTK [1])	covalent modification of ErbB4 by mass spectrometry (Erbb4 kinase domain)	covalent modification of JAK3 by mass spectrometry (JAK3 kinase)	also measured
C=CC(=O)Nc1cccc(Nc2ncc(C)c(Nc3cccc(C)c3)n2)c1 [Compound I-2, N-(3-(5-methyl-4-(m-tolylamino)pyrimidin-2-ylamino)phenyl) acrylamide]	covalent modification of TEC kinase at Cys449; also recorded: reaction was complete	irreversible			
Cc1cccc(Nc2nc(Nc3cccc(NC(=O)/C=C/CN(C)C)c3)ncc2F)c1 [Compound I-4, (E)-4-(dimethylamino)-N-(3-(5-fluoro-4-(m-tolylamino)pyrimidin-2-ylamino)phenyl)but-2-enamide]	reaction was complete; also recorded: covalent modification of TEC kinase at Cys449	irreversible	covalent modification of ErbB4		
C=CC(=O)Nc1cccc(Nc2nc(Nc3ccccc3)ncc2C)c1 [Compound I-7, N-(3-(5-methyl-2-(phenylamino)pyrimidin-4-ylamino)phenyl) acrylamide]	reaction was complete; also recorded: covalent modification of TEC kinase at Cys449	irreversible		reaction was not entirely complete; also recorded: covalent modification of JAK-3 kinase at Cys909	positive shift of centroid mass of BTK (BTK [2]; intact BTK incubated 1 hr with 10× fold excess of compound): about 371.1 Da; covalent modification of BTK by mass spectrometry (BTK [2]; intact BTK, 1 hr, 10× fold excess of compound): complete modification; also recorded: covalent modification of BTK; time BTK protein remains occupied after compound removal (BTK [3]): over 8 hours; concentration at which >50% of BTK is occupied (BTK [4]): A (greater than 1 nM); concentration at which >90% of BTK is occupied (BTK [4]): B (greater than 10 nM)
Cc1cnc(Nc2cccc(S(N)(=O)=O)c2)nc1Nc1ccc2c(c1)CCN(C(=O)CCl)C2 [Compound I-11, 3-(4-(2-(2-chloroacetyl)-1,2,3,4-tetrahydroisoquinolin-6-ylamino)-5-methylpyrimidin-2-ylamino)benzenesulfonamide]			covalent modification of ErbB4	measurable modification	
C=CC(=O)Nc1cccc(Oc2nc(Nc3ccc(OC)nc3)ncc2C(=O)NC2CC2)c1 [Compound I-176, 4-(3-acrylamidophenoxy)-2-(6-methoxypyridin-3-ylamino)-pyrimidine-5-carboxylic acid cyclopropylamide]					IC50 (ITK): 10 to 100 nM; IC50 (BTK [5]): 100 to 1000 nM; IC50 (BTK [6]; Omnia assay, [BTK]=5 nM, read-out: BTK Inhibition): < 10 nM; IC50 (EGFR-WT): < 10 nM
CCC(=O)Nc1cccc(Nc2nc(Nc3ccccc3)ncc2C)c1 [I^R-7, N-(3-(5-methyl-2-(phenylamino)pyrimidin-4-ylamino)phenyl) propionamide]					biochemical activity against BTK (BTK [6]): biochemically inactive against BTK
